Experimental data taken from a compilation of properties of binary mixtures (doi:10.1016/j.molliq.2021.118393).

Experiment: xn = mol fraction of the nth substance listed
Settings: 100 kPa

SMILES | electrical conductivity (293.15 K, x2 = 0.333) | speed of sound (293.15 K, x2 = 0.333) | electrical conductivity (298.15 K, x2 = 0.333) | speed of sound (298.15 K, x2 = 0.333) | electrical conductivity (313.15 K, x2 = 0.333) | speed of sound (313.15 K, x2 = 0.333) | viscosity (313.15 K, x2 = 0.333) | electrical conductivity (318.15 K, x2 = 0.333) | speed of sound (318.15 K, x2 = 0.333) | viscosity (318.15 K, x2 = 0.333) | electrical conductivity (323.15 K, x2 = 0.333) | speed of sound (323.15 K, x2 = 0.333) | viscosity (323.15 K, x2 = 0.333) | electrical conductivity (333.15 K, x2 = 0.333) | speed of sound (333.15 K, x2 = 0.333) | viscosity (333.15 K, x2 = 0.333) | further results
O=C(O)CCl + CCC[N+](CCC)(CCC)CCC.[Br-] | 0.0435 S/m | 1550.2 m/s | 0.0673 S/m | 1535.1 m/s | 0.177 S/m | 1491.4 m/s | 45.76 mPa·s | 0.228 S/m | 1477.4 m/s | 34.88 mPa·s | 0.284 S/m | 1463.4 m/s | 27.18 mPa·s | 0.407 S/m | 1436.1 m/s | 17.67 mPa·s | viscosity (293.15 K, x2 = 0.333): 178.6 mPa·s; viscosity (298.15 K, x2 = 0.333): 119.4 mPa·s; electrical conductivity (303.15 K, x2 = 0.333): 0.0981 S/m; speed of sound (303.15 K, x2 = 0.333): 1520.3 m/s; viscosity (303.15 K, x2 = 0.333): 84.3 mPa·s
O=C(O)CCl + CCCC[N+](CCCC)(CCCC)CCCC.O=S(=O)([O-])O | 0.012 S/m | 1539.9 m/s | 0.0189 S/m | 1523.1 m/s | 0.0508 S/m | 1475.5 m/s | 176.3 mPa·s | 0.0669 S/m | 1460.9 m/s | 132.2 mPa·s | 0.0861 S/m | 1446.5 m/s | 101.9 mPa·s | 0.133 S/m | 1418.6 m/s | 64.29 mPa·s | electrical conductivity (293.15 K, x2 = 0.5): 0.0017 S/m; speed of sound (293.15 K, x2 = 0.5): 1623.8 m/s; electrical conductivity (298.15 K, x2 = 0.5): 0.0032 S/m; speed of sound (298.15 K, x2 = 0.5): 1594.7 m/s; electrical conductivity (303.15 K, x2 = 0.5): 0.0053 S/m; speed of sound (303.15 K, x2 = 0.5): 1569.4 m/s; electrical conductivity (308.15 K, x2 = 0.5): 0.0037 S/m; speed of sound (308.15 K, x2 = 0.5): 1547 m/s; electrical conductivity (318.15 K, x2 = 0.5): 0.0143 S/m; speed of sound (318.15 K, x2 = 0.5): 1509 m/s; viscosity (318.15 K, x2 = 0.5): 769 mPa·s; electrical conductivity (323.15 K, x2 = 0.5): 0.0226 S/m; speed of sound (323.15 K, x2 = 0.5): 1492.3 m/s; viscosity (323.15 K, x2 = 0.5): 546 mPa·s; electrical conductivity (328.15 K, x2 = 0.333): 0.108 S/m; speed of sound (328.15 K, x2 = 0.333): 1432.5 m/s; viscosity (328.15 K, x2 = 0.333): 81.5 mPa·s; electrical conductivity (328.15 K, x2 = 0.5): 0.0306 S/m; speed of sound (328.15 K, x2 = 0.5): 1476.3 m/s; viscosity (328.15 K, x2 = 0.5): 396 mPa·s
